Laboratory results from patent US10208066B2, “Imidazopyridazine compounds and their use” (HUTCHISON MEDIPHARMA LIMITED, priority 2014, dated 2019).

Experiments:
PI3K-δ (p110δ/p85α) = PI3K-δ (p110δ/p85α) (Homo sapiens (Human), UniProt O00329); test: Transcreener KINASE Assay, fluorescent determination of PI3K enzyme activity; assay type: biochemical;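 also: ADP formed by the kinase detected via far-red competitive fluorescence polarization immunoassay after 80 min room-temperature reaction, inhibition relative to 2% DMSO wells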
PI3K-α (p110α/p85α) = PI3K-α (p110α/p85α) (Homo sapiens (Human), UniProt P42336); test: as above; assay type: biochemical; settings: for inhibition at 1 µM: read-out: PI3K-α IH % (inhibition rate)
Method: Inhibition rates were calculated as follow: IH %=(ADP amount under 2% DMSO well−ADP amount under test compound well)/ADP amount under 2% DMSO well×100%.

PI3K-β = PI3K-β (Homo sapiens, UniProt P42338); test: as above; assay type: biochemical; settings: for inhibition at 1 µM: read-out: PI3K-β IH % (inhibition rate);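 as to all read-outs here: recombinant PI3K enzyme reaction, 80 min at room temperature, ADP formed detected by far-red competitive fluorescence polarization immunoassay, inhibition relative to ADP in 2% DMSO control wells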
Method: (§2) It is a universal, homogenous, high throughput screening (HTS) technology using a far-red, competitive fluorescence polarization immunoassay based on the detection of ADP to monitor the activity of enzymes that catalyze group transfer reactions. […] The reaction mixture was added into desired wells of a 96-well plate. The plate was sealed and incubated for 80 min at room temperature. • 2) Next, 25 uL ADP detection mix was added into each well. The plate was sealed again and incubated for 60 min at room temperature. Then fluorescence polarization was measured by Tecan Infinite F500 Reader.
(§3) Data was analyzed and IC50 values were generated using the add-in software for Microsoft Excel, Xlfit™ (version 5.3).

SU-DHL-6 cells = test: In vitro cell proliferation assay in SU-DHL-6 cell line (CCK-8); assay type: cell-based; settings: Homo sapiens, SU-DHL-6, 72 h
Method: Growth inhibition assays were carried out using 10% FBS supplemented media. Cells were seeded at a concentration of 15000 cells/well in a 96 well plate. Test compound dilution at different concentrations (final concentrations of the test compound: 1 uM, 0.3 uM, 0.1 uM, 0.037 uM, 0.012 uM, 0.0041 uM, 0.0014 uM and 0.0005 uM) were added after 24 hours. Growth was assessed using Cell Counting Kit-8 (CCK-8) (Dojindo, Cat#CK04) after the test compound were incubated for 72 h. Absorbance was read at the wave length 450 nm on Multiskan MK3 machine (Thermo).
as §3

[1] = system: PI3Kδ signaling in basophils; test: Inhibition of PI3Kδ signaling in basophils from human whole blood; assay type: cell-based; settings: human whole blood, anti-human IgE stimulation, CD63; read-out: IC50, inhibition of PI3Kδ signaling in basophils
Method: Methods • 1) Heparinized human whole blood was mixed and pipetted into the 96 well v-bottom plate, 100 μL per well. • 2) 10 μL of stimulation buffer (1 mg/mL stock, final concentration of Recombinant human IL-3: 20 ng/mL) was added to the whole blood samples of each well and vortex gently. […] Vortex all the wells once more and incubate for 20 min at 37° C. • 5) Labeling with staining antibody: Degranulation was stopped by incubating the samples on ice for 5 min. 6 μL of staining antibody mixture (anti-CD63-FITC and anti-IgE-PE) was added into each well. Vortex and incubate the wells for 20 min in an ice bath, covered to prevent exposure to light. • 6) The whole blood samples were lysed with 300 uL RBC lysis (pre-warmed to room temperature, 20 to 25° C.). Vortex and incubate the samples for 15 min at room temperature. Spin down cells (5 min, 250×g, 4° C.). The supernatant was aspirated leaving approximately 100 μL in each well. • 7) The blood samples were lysed once more as step 6). • 8) Washing: The samples are washed once with 0.5 mL of washing solution. The plate was centrifuged (5 min, 250×g, 4° C.). The supernatant was aspirated leaving approximately 100 μL in each well. The sample in each well was washed and centrifuged once more as above. • 9) 200 μL of fixing solution (1% papraledehyde in 1% BSA/PBS) was added into each well.
as §3

PI3K-γ (p110γ) = PI3K-γ (p110γ) (Homo sapiens (Human), UniProt P48736); test: Transcreener KINASE Assay, fluorescent determination of PI3K enzyme activity; assay type: biochemical; settings: for inhibition at 1 µM: read-out: PI3K-γ IH % (inhibition rate);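 as to all read-outs here: ADP produced by p110γ kinase reaction, 80 min at room temperature, detected by far-red fluorescence polarization immunoassay, inhibition relative to 2% DMSO control wells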
Method: as §2, §3

[2] = system: AKT phosphorylation (p-AKT Ser473) in Ramos cells; test: Inhibition of AKT phosphorylation in Ramos cell line (anti-IgM stimulated); assay type: cell-based; settings: Homo sapiens; Ramos cells, anti-IgM stimulation; read-out: IC50, inhibition of AKT phosphorylation
Method: 6×10^4/mL Ramos cells (ATCC, CRL-1596; cells were cultured in RPMI1640 media with 10% FBS) were seeded into a 96-well plate (Beckman Dickinson, No. 356692) at 80 uL/well, 4,800 cells/well. After incubation for 3 hr at 37° C. under 5% CO2, Ramos cells were treated with 10 uL/well various concentrations of test compound (final concentrations of the test compound: 1 uM, 0.3 uM, 0.1 uM, 0.037 uM, 0.012 uM, 0.0041 uM, 0.0014 uM and 0.0005 uM) or 0.3% DMSO for 30 min, and then were stimulated with 10 uL/well 1 ug/ml Anti-IgM (Jackson Immunoresearch, 709-006-073) for 15-20 min. • 1) Cells were fixed with 100 μL of 4% pre-warmed Paraformaldehyde (2% final concentration), and incubated for 45 min at room temperature. • 2) The paraformaldehyde solution was removed. 100 μL of ice-cold methanol was added into each well and the plate was left at 4° C. for 30 min. • 3) The cells were washed for three times with 160 μL PBS. • 4) 40 μL 1:350 dilution of Rabbit anti-p-AKT(Ser^473) antibody (Cell Signaling Technology, 4060L) in antibody dilution buffer (1% BSA, in PBS) were added into each well. The plate was inculpated overnight at 4° C. • 5) The cells were washed for 3 times with 160 uL PBS. • 6) 45 μL of Goat anti-rabbit IgG Alexa488 antibody (Invitrogen, A11034) at a 1:1,000 dilution in antibody dilution buffer (1% BSA, in PBS) were added into each well. The plate was covered with foil to keep out of light and was incubated for 90 min at room temperature. • 7) The cells were washed for 3 times with 160 uL PBS. • 8) 50 μL of 1.5 μM Propidium Iodide (Sigma: P4170) solution was added into each well to determine cell number (1.5 mM Propidium iodide stock was diluted with 1:1,000 in PBS, and the final concentration was 1.5 μM). • 9) The plate was incubated at room temperature for 30 min and then was sealed with a cover-seal. • 10) The plate was loaded into the Acumen Explorer and scan with the appropriate instrument settings.
as §3

[3] = system: B cells (B220+) activation (CD86); test: Anti-IgD antibody induced B cells activation in rat whole blood, ex vivo after oral administration; set-up: species or system Wistar rats
Method: Activation of B cells (B220+) in rat whole, blood with anti-IgD antibody leading to activation via Ig receptors is known to involve PI3K pathways and sensitive to modulation by PI3Kδ inhibitors, A pharmacodynamics assay was developed to assess activity of PI3Kδ inhibitors ex vivo following oral administration of inhibitors to rats.
(§1) Wistar rats (female, 6-8 weeks old) were used in the experiments. The dose dependency, time course study and PKPD relationship of compound 4 were conducted in normal Wistar rats. […] The control group (6 rats) was treated with the vehicle alone. At designated time points (1 hour, 8 hours, 16 hours and 24 hours after administration), blood samples were collected from rats via retro-orbital bleeding under isofluorane anesthesia into heparinized tubes. The heparin anti-coagulated blood was mixed with anti-rat-IgD, then was incubated at 37° C. under 5% CO2 overnight. Fluorescence signal for CD86 on B220 (B cells) positive cells was detected using a flow cytometer (BD FACSCalibur, BD Biosciences) and data were analyzed by CellQuest software. Plasma was collected to measure compound 4 levels.

[4] = Plasma levels of compound 4 after oral administration; assay type: in vivo, Wistar rats; settings: dose range 0.01 mg/kg to 3 mg/kg
Method: as §1

[5] = system: collagen-induced arthritis, paw volume; test: Rat collagen II induced arthritis (CIA) model; assay type: in vivo, Wistar rats
Method: Rat collagen induced arthritis is an experimental model of polyarthritis that has been widely used for nonclinical testing of numerous anti-arthritic agents that are either under nonclinical or clinical investigation or are currently used as therapeutics in this disease. […] Wistar rats were immunized intradermally with 200 μg bovine collagen H emulsified in Freund's incomplete adjuvant (IFA, Sigma. US) on day 0 and day 7. The hind paw volumes were measured before and after the immunization. […] The naive group was not administered. YiSaiPu (10 mg/kg), a human tumor necrosis factor receptor p75 Fc fusion protein, was administered with intraperitoneal injection on days 10, 12 and 14 as a positive control. The study was terminated on day 18.

PI3K-γ (p110γ), sequence (P48736 whole entry, species assumed): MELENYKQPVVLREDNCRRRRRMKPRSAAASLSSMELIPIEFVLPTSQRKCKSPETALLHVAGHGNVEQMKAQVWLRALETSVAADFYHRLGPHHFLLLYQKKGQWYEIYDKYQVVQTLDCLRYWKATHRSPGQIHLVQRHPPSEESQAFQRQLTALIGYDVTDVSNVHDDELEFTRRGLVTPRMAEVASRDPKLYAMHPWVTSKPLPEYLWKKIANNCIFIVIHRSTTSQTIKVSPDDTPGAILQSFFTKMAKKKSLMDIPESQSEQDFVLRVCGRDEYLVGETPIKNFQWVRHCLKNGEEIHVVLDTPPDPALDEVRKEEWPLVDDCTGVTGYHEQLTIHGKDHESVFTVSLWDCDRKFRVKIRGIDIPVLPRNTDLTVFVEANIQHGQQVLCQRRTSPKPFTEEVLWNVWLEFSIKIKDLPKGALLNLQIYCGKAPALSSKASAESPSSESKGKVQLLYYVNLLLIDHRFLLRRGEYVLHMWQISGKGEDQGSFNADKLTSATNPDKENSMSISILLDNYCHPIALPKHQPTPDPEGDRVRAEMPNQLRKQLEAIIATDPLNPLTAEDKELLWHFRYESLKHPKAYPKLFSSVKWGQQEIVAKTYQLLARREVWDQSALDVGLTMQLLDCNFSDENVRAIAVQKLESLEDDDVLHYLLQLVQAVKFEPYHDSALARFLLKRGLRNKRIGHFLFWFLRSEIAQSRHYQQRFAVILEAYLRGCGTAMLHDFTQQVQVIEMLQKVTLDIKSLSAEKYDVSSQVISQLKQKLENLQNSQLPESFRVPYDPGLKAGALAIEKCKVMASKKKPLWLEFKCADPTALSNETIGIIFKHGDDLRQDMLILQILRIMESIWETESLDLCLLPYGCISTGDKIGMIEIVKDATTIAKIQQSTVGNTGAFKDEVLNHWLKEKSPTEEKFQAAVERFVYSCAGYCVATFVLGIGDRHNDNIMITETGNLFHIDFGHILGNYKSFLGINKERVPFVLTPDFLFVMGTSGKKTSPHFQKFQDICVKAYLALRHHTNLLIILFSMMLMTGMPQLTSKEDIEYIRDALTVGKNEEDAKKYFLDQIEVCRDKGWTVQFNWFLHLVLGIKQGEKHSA
PI3K-β, sequence (P42338 whole entry, looked up): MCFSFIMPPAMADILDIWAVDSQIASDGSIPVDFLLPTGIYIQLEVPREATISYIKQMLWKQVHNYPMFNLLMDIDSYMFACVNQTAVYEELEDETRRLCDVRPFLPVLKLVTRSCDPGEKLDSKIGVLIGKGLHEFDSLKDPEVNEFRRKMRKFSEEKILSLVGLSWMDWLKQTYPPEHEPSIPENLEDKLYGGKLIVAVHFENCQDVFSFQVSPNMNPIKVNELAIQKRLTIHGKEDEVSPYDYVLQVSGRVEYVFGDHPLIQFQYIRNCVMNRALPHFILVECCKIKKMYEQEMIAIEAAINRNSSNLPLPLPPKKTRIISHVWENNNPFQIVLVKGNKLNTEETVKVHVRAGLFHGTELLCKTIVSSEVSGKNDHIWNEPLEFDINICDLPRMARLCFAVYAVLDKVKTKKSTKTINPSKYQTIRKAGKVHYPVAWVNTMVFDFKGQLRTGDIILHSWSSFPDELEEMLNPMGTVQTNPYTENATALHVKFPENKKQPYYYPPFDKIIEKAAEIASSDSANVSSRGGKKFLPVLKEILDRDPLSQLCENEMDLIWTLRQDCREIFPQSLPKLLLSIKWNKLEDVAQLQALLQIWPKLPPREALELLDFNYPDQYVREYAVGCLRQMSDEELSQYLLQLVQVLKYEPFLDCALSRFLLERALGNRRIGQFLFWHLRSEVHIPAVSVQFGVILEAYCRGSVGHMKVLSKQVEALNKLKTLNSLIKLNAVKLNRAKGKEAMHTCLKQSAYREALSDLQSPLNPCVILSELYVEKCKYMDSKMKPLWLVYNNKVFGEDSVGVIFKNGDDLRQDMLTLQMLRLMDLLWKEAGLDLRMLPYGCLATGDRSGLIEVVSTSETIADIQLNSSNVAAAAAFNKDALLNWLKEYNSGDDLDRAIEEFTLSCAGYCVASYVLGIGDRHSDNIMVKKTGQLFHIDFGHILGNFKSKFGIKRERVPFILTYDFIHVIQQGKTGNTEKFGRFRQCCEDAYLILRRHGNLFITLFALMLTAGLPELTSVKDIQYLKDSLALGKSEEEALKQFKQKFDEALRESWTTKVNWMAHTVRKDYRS
PI3K-δ (p110δ/p85α), sequence (O00329 whole entry, species assumed): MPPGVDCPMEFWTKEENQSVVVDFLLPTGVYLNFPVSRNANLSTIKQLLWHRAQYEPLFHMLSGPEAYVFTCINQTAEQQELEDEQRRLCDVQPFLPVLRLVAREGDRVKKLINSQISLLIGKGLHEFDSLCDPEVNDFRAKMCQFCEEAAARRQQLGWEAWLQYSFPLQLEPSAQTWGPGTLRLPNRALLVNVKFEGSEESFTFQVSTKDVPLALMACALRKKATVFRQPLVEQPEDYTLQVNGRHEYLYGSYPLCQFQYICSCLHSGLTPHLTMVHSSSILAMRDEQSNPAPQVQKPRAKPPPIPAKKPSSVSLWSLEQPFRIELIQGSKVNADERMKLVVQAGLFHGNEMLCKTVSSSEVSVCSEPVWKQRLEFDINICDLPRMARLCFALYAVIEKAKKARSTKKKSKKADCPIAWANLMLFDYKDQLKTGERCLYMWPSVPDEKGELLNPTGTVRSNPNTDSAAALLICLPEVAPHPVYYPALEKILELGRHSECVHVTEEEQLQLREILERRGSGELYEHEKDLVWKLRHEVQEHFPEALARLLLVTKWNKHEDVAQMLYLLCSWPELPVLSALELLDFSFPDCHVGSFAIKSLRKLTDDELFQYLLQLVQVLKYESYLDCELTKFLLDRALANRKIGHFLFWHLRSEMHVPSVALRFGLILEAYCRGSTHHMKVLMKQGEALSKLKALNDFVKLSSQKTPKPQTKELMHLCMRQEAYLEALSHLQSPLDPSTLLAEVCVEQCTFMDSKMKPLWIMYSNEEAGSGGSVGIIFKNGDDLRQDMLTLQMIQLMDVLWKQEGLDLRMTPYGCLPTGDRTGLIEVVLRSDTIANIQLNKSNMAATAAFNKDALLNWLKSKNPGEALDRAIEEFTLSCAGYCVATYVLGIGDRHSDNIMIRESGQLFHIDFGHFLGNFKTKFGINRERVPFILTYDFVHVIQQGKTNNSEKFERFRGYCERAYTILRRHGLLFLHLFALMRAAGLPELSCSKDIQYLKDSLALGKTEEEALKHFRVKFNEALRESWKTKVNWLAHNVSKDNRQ
PI3K-δ (p110δ/p85α), sequence (P27986 whole entry partner, species assumed): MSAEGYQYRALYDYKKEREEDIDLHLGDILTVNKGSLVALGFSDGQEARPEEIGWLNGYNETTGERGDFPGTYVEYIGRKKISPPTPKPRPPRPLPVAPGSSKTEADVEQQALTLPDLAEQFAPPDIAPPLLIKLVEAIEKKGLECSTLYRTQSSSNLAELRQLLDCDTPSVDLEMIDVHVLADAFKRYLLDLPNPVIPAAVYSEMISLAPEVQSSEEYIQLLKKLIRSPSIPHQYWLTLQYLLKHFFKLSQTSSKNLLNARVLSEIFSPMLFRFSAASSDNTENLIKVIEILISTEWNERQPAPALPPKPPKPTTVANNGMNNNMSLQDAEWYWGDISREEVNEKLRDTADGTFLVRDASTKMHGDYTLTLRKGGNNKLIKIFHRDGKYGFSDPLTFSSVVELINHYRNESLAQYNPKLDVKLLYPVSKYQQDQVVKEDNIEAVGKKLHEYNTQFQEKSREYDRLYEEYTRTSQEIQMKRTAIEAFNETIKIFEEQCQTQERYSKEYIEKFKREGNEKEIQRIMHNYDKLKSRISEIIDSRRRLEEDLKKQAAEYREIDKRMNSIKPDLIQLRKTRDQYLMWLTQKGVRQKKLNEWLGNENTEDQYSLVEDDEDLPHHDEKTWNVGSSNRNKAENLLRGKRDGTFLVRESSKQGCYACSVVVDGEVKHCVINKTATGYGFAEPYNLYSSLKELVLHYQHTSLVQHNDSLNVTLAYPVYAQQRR
PI3K-α (p110α/p85α), sequence (P42336 whole entry, species assumed): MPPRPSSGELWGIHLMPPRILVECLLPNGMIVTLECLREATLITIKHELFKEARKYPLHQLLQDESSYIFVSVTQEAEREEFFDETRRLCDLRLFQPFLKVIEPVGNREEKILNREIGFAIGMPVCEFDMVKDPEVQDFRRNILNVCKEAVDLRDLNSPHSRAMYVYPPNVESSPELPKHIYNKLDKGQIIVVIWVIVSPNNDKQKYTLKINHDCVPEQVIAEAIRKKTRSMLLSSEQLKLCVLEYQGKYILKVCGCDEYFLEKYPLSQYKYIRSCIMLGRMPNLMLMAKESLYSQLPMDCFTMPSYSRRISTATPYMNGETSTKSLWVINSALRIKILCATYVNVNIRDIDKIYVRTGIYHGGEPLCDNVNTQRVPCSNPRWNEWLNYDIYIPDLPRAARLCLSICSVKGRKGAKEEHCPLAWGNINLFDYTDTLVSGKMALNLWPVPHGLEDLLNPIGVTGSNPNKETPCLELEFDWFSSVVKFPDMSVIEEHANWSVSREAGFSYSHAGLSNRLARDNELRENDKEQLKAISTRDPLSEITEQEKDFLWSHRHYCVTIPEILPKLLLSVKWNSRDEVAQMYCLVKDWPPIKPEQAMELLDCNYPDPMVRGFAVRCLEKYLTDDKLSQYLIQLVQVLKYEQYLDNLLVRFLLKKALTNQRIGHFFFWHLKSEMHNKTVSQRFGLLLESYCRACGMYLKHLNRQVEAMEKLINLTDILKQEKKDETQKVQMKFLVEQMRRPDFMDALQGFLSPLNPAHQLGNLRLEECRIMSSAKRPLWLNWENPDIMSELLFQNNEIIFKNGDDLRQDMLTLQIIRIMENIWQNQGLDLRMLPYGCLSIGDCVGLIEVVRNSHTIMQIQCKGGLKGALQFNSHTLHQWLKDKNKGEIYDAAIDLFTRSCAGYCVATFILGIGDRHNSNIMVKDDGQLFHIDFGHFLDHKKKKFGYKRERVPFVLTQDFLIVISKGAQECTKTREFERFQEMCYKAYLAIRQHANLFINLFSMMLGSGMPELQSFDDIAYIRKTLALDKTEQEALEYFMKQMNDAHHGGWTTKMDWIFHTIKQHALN
PI3K-α (p110α/p85α), sequence (P27986 whole entry partner, species assumed): as the sequence (P27986 whole entry partner, species assumed) above

inhibition at 1 µM (PI3K-γ (p110γ)) [%] | SMILES | IC50 (PI3K-δ (p110δ/p85α)) [nM] | inhibition at 1 µM (PI3K-α (p110α/p85α)) [%] | inhibition at 1 µM (PI3K-β; at 1 μM) [%] | IC50 (SU-DHL-6 cells) [nM] | IC50 [1] [nM] | IC50 (PI3K-γ (p110γ)) [nM] | IC50 [2] [nM] | IC50 (PI3K-α (p110α/p85α)) [nM] | IC50 (PI3K-β) [nM] | ED50 ([3]; Rattus norvegicus, B-cell, at 2 hr post-dose, oral) [mg/kg] | inhibition at 0.1 mg/kg ([3]; Rattus norvegicus, B-cell, single oral 0.1 mg/kg dose, up to 24 hr) [%] | anti-IgD induced B cell activation in rat whole blood, ex vivo ([3]; oral, dose range 0.01 to 3 mg/kg, p<0.01) | Plasma levels [4] | mean paw volume at end of treatment vs vehicle-treated diseased animals ([5]; PO QD 7 days, p<0.01 except at lowest dose 0.03 mg/kg) | effects on parameters associated with established type II collagen-induced arthritis ([5]; daily oral treatment) | PI3K-β IH % (inhibition rate) (PI3K-β; at 1 μM) [%]
– | Cc1cnc2cc([C@H](C)Nc3ncnc(N)c3C#N)c(-c3ccccc3)nn12 [Compound 22] | 2 | 13.6 | 76.7 | 19 | 2 | 322 | 4 | – | – | – | – | – | – | – | – | –
– | Cc1cnc2cc([C@H](C)Nc3ncnc4[nH]cnc34)c(-c3ccccc3)nn12 [Compound 23] | 6 | 3.2 | 28.7 | 78 | 6 | 343 | 12 | – | – | – | – | – | – | – | – | –
– | C[C@H](Nc1ncnc2[nH]cnc12)c1cc2ncc(Cl)n2nc1-c1ccccc1F [Compound 13] | 3 | – | – | 11 | 10 | 484 | 4 | > 1000 | 1920 | – | – | – | – | – | – | –
43.1 | C[C@@H](c1cc2ncc(Cl)n2nc1-c1ccccc1)n1cnc2c(N)ncnc21 [Compound 20, (S)-9-(1-(3-chloro-6-phenylimidazo[1,2-b]pyridazin-7-yl)ethyl)-9H-purin-6-amine] | 73 | – | 17.4 | 262 | 397 | – | – | > 1000 | – | – | – | – | – | – | – | –
– | C[C@H](Nc1ncnc(N)c1C#N)c1cc2ncc(Cl)n2nc1-c1ccccc1 [Compound 4, (S)-4-amino-6-((1-(3-chloro-6-phenylimidazo[1,2-b]pyridazin-7-yl)ethyl)amino)pyrimidine-5-carbonitrile] | – | – | – | – | – | – | 2 | > 1000 | – | < 0.01 | > 90 | inhibited anti-IgD induced B cell activation | dose-proportional | significantly decreased | dose-dependent beneficial effects | –
61.1 | CC[C@H](Nc1ncnc(N)c1C#N)c1cc2ncc(Cl)n2nc1-c1ccccc1 [Compound 6, (S)-4-amino-6-((1-(3-chloro-6-phenylimidazo[1,2-b]pyridazin-7-yl)propyl)amino)pyrimidine-5-carbonitrile] | 1 | – | – | 3 | 6 | – | 0.3 | > 1000 | 303 | – | – | – | – | – | – | –
-1.4 | C[C@H](Nc1ncnc(N)c1C#N)c1cc2ncc(Cl)n2nc1-c1ccccn1 [Compound 8, (S)-4-amino-6-((1-(3-chloro-6-(pyridin-2-yl)imidazo[1,2-b]pyridazin-7-yl)ethyl)amino)pyrimidine-5-carbonitrile] | 10 | – | 37.7 | 31 | 9 | – | – | > 1000 | – | – | – | – | – | – | – | –
– | C[C@H](Nc1ncnc(N)c1C#N)c1cc2ncc(Cl)n2nc1-c1cccc(F)c1 [Compound 15] | 1 | – | 59 | 2 | 2 | 393 | 0.5 | > 1000 | – | – | – | – | – | – | – | –
– | CCC(Nc1ncnc(N)c1C#N)c1cc2ncc(Cl)n2nc1-c1ccccc1F (stereo not shown) [Compound 19] | 2 | – | – | 23 | 16 | 1960 | – | > 1000 | 1070 | – | – | – | – | – | – | –
61.2 | C[C@H](Nc1ncnc2[nH]ccc12)c1cc2ncc(Cl)n2nc1-c1ccccc1 [Compound 17] | 26 | – | 15.8 | 172 | 618 | – | – | > 1000 | – | – | – | – | – | – | – | –
– | CCC(Nc1ncnc2[nH]cnc12)c1cc2ncc(Cl)n2nc1-c1ccccc1 (stereo not shown) [Compound 18] | 4 | – | – | 26 | 88 | 617 | – | > 1000 | – | – | – | – | – | – | – | 42
